Several values for one entry are separate records, joined by “and”; a condition that tells them apart may be missing. Equal entries are not always repeated.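 Assay format: 96-well plates, 48-hour exposure. Here, GI50 denotes the concentration required for 50% inhibition of growth. TGI marks complete inhibition of growth.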 *1 amine or outer side, *2 acyl side, *3 side chain or, on linkers, in order; H or OH if unused. Where a SMILES comes first, the peptide text is derived from it. Bridges are numbered along the chain shown (N, C = ends). [ ]: non-standard residue; d: D form. ξ: configuration not given here. X4 = CCC(C)C(N[*:1])C(O)CC(=O)O[C@H](C(=O)C(C)C(=O)[*:2])C(C)C; NMeY = CN[C@@H](Cc1ccc(O)cc1)C(=O)O; ξNMeL = CNC(CC(C)C)C(=O)O; ξT = CC(O)C(N)C(=O)O
What was measured:
Experiment in all cases: growth of human tumour cells (NCI), 48 h
NCI-H522 lung = system: NCI-H522 lung
CCRF-CEM leukemia = system: CCRF-CEM leukemia
HL-60(TB) leukemia = system: HL-60(TB) leukemia
SK-OV-3 ovarian = system: SK-OV-3 ovarian
OVCAR-3 ovarian = system: OVCAR-3 ovarian
UACC-62 melanoma = system: UACC-62 melanoma
M14 melanoma = system: M14 melanoma
UACC-257 melanoma = system: UACC-257 melanoma
NCI/ADR-RES ovarian = system: NCI/ADR-RES ovarian
ACHN renal = system: ACHN renal

| Compound | TGI (NCI-H522 lung) | TGI (CCRF-CEM leukemia) | TGI (HL-60(TB) leukemia) | TGI (SK-OV-3 ovarian) | TGI (OVCAR-3 ovarian) | TGI (UACC-62 melanoma) | TGI (M14 melanoma) | TGI (UACC-257 melanoma) | TGI (NCI/ADR-RES ovarian) | TGI (ACHN renal) | GI50 (NCI/ADR-RES ovarian) | GI50 (HL-60(TB) leukemia) |
| --- | --- | --- | --- | --- | --- | --- | --- | --- | --- | --- | --- | --- |
| O=C(NNC(=S)Nc1ccccc1)c1csc(NC(=S)NC2CCCCC2)n1 | > 100 µM | > 100 µM | > 100 µM | > 100 µM | > 100 µM | > 100 µM | > 100 µM | 56.8 µM | > 100 µM | > 100 µM | – | – |
| CCC(C)C1NC(=O)C(NC(=O)C(CC(C)C)N(C)C(=O)[C@@H]2CCCN2)C(C)OC(=O)[C@H](Cc2ccc(OC)cc2)N(C)C(=O)[C@@H]2CCCN2C(=O)[C@H](CC(C)C)NC(=O)C(C)C(=O)[C@H](C(C)C)OC(=O)CC1O (some centres not stated) (H-P[ξNMeL][ξT][X4]LP[NMeY](Me); ester 3-C) | 0.00653 µM | 0.0557 µM | 0.0279 µM and 0.0213 µM | 0.0177 µM | 0.00686 µM | 0.00147 µM | 0.00865 µM | 0.00814 µM and 0.0465 µM | 0.78 µM and 3.74 µM | 0.0352 µM and 0.156 µM | 0.233 µM | – |
| O=C(Nc1cccc(-c2cn3ccccc3n2)c1)c1ccncc1 | 72.4 µM | 82.5 µM | 45.8 µM | > 100 µM | > 100 µM | 42.2 µM | > 100 µM | 73.5 µM | 65.1 µM | > 100 µM | – | – |
| Cc1ccc(O)c(C2=NNC(c3cccc(Br)c3)C2)c1 (configuration not stated) | > 100 µM | > 100 µM | > 100 µM | > 100 µM | > 100 µM | > 100 µM | > 100 µM | > 100 µM | > 100 µM | > 100 µM | – | – |
| N#CCCN(CCCN(C(=O)Nc1ccccc1)c1ccccc1)C(=O)Nc1ccccc1 | > 100 µM | > 100 µM | > 100 µM | > 100 µM | > 100 µM | > 100 µM | > 100 µM | > 100 µM | > 100 µM | > 100 µM | – | – |
| CC(C)(C)N1Cc2ccccc2/C(=C/Sc2ccccc2)C1=O | 11.4 µM | > 100 µM | 39.8 µM | 31.2 µM | 25.1 µM | 24.3 µM | 25.2 µM | 31.2 µM | 33.6 µM | 32 µM | – | – |
| NC(=O)CC(Nc1ncc2c(n1)-c1ccccc1OC2)C(=O)O (configuration not stated) | > 100 µM | > 100 µM | 36.8 µM | > 100 µM | > 100 µM | > 100 µM | > 100 µM | > 100 µM | > 100 µM | > 100 µM | – | – |
| COC1/C=C/C(C)C(C(C)C(OC)C(C)CCC(=O)C(C)C(CCC(=O)O)OC)OC(=O)/C=C/C=C(\C)CC(OC)CC2=CC(=O)O[C@@H](C(C)C(OC)CC(OC)/C=C/C(C)C(OC)C1)[C@H]2O (some centres not stated) | > 5 µM | > 1.58 µM | 1 µM | 4.06 µM | 1.72 µM | > 4.31 µM | > 5 µM | > 3.9 µM | > 5 µM | 2.93 µM | – | – |
| N#CCc1nc(C#N)c(N)o1 | > 100 µM | > 100 µM | > 100 µM | > 100 µM | > 100 µM | > 100 µM | > 100 µM | > 100 µM | > 100 µM | > 100 µM | – | > 100 µM |
| Cc1ccc(S(=O)(=O)N2CCN(CCN(C)CCN3CCN(S(=O)(=O)c4ccc(C)cc4)CC3)CC2)cc1 | 38.9 µM | 44.2 µM | 33.6 µM | 33.3 µM | 31.1 µM | 32.8 µM | 31.2 µM | 30.5 µM | 43.1 µM | 32.7 µM | – | – |
| Cc1cc(S(=O)(=O)Nc2nnc3cc(C(F)(F)F)cc(C)n23)c(S)cc1Cl | > 100 µM | > 100 µM | > 100 µM | > 90.2 µM | > 100 µM | > 100 µM | > 100 µM | > 100 µM | > 100 µM | > 100 µM | – | – |
| CCOC(=O)C(Cc1ccccc1)(Cc1ccc(O)cn1)NC(=O)c1ccccc1 (configuration not stated) | 53.8 µM | > 100 µM | 43.8 µM | > 100 µM | 47.8 µM | 46 µM | 40.5 µM | 95 µM | > 100 µM | > 100 µM | – | – |
| O=C(/C=C/c1ccc([N+](=O)[O-])cc1)c1nc2ccccc2[nH]1 | > 100 µM | > 100 µM | > 29.9 µM | > 100 µM | > 78.1 µM | 63 µM | > 100 µM | 31.4 µM | > 100 µM | > 100 µM | – | – |
| CC#CC(O)(C(=O)OC1CCCN(C)C1)C1=CC=CCC1 (configuration not stated) | > 100 µM | > 100 µM | > 100 µM | > 100 µM | > 100 µM | > 100 µM | > 100 µM | > 100 µM | > 100 µM | > 100 µM | – | – |
